# Experimental data from ChEMBL document CHEMBL1201862, “PubChem BioAssay data set” (2004).
#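 Following 48 hours of exposure in 96-well plates, responses at five concentrations were used to interpolate endpoints linearly. The concentration for 50% growth inhibition is given as GI50.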 Calls of active or inactive are those of the source. No stated cut-off is given here; in the data, active = GI50 up to about 1.1 µM and inactive = higher.
# Experiments:
# Test in all cases: NCI tumour cell line growth inhibition, 48 h
# SN12C = tested on: SN12C
# A498 = tested on: A498
# 786-0 = tested on: 786-0
# SF-268 = tested on: SF-268
# TK-10 = tested on: TK-10
# CCRF-CEM = tested on: CCRF-CEM
# LOX IMVI = tested on: LOX IMVI
# HT-29 = tested on: HT-29
# NCI-H226 = tested on: NCI-H226
# COLO 205 = tested on: COLO 205
# UACC-257 = tested on: UACC-257
# HOP-62 = tested on: HOP-62
# ACHN = tested on: ACHN
# IGROV-1 = tested on: IGROV-1
# NCI-H460 = tested on: NCI-H460
# UO-31 = tested on: UO-31
# RXF 393 = tested on: RXF 393
# HCT-15 = tested on: HCT-15
# NCI-H23 = tested on: NCI-H23
# Hs-578T = tested on: Hs-578T
# SF-539 = tested on: SF-539
# MDA-MB-435 = tested on: MDA-MB-435
# OVCAR-5 = tested on: OVCAR-5
# Malme-3M = tested on: Malme-3M
# A549 = tested on: A549
# MDA-N = tested on: MDA-N
# NCI-H522 = tested on: NCI-H522
# HCT-116 = tested on: HCT-116
# SK-MEL-28 = tested on: SK-MEL-28
# OVCAR-3 = tested on: OVCAR-3
# BT-549 = tested on: BT-549
# NCI/ADR-RES = tested on: NCI/ADR-RES
# MOLT-4 = tested on: MOLT-4
# SNB-19 = tested on: SNB-19
# HL-60 = tested on: HL-60
# RPMI-8226 = tested on: RPMI-8226
# SF-295 = tested on: SF-295
# SK-OV-3 = tested on: SK-OV-3
# M14 = tested on: M14
# UACC-62 = tested on: UACC-62
# SR = tested on: SR
# OVCAR-8 = tested on: OVCAR-8
# K562 = tested on: K562
# HOP-92 = tested on: HOP-92
# PC-3 = tested on: PC-3
# SK-MEL-5 = tested on: SK-MEL-5
# MCF7 = tested on: MCF7
# SK-MEL-2 = tested on: SK-MEL-2
# U-251 = tested on: U-251
# SW-620 = tested on: SW-620
# MDA-MB-231 = tested on: MDA-MB-231
# CAKI-1 = tested on: CAKI-1
# KM12 = tested on: KM12
# DU-145 = tested on: DU-145
# EKVX = tested on: EKVX
# OVCAR-4 = tested on: OVCAR-4
# T47D = tested on: T47D
# HCC 2998 = tested on: HCC 2998
# SNB-75 = tested on: SNB-75
compound,measurement,setting,value
C[C@]12CC[C@H]3[C@@H](CCC4=C(Br)C(=O)C=C[C@@]43O)[C@@H]1CCC2=O,GI50,SN12C,33.7 µM (inactive)
same,GI50,A498,49.2 µM (inactive)
same,GI50,786-0,24.9 µM (inactive)
same,GI50,SF-268,45.7 µM (inactive)
same,GI50,TK-10,36.6 µM (inactive)
same,GI50,CCRF-CEM,0.957 µM (active)
same,GI50,LOX IMVI,32.3 µM (inactive)
same,GI50,HT-29,36 µM (inactive)
same,GI50,NCI-H226,> 100 µM (inactive)
same,GI50,COLO 205,61 µM (inactive)
same,GI50,UACC-257,16.9 µM (inactive)
same,GI50,HOP-62,50 µM (inactive)
same,GI50,ACHN,40.6 µM (inactive)
same,GI50,IGROV-1,36 µM (inactive)
same,GI50,NCI-H460,23.5 µM (inactive)
same,GI50,UO-31,42.2 µM (inactive)
same,GI50,RXF 393,21.1 µM (inactive)
same,GI50,HCT-15,15.6 µM
same,GI50,NCI-H23,17.8 µM (inactive)
same,GI50,Hs-578T,62.8 µM (inactive)
same,GI50,SF-539,53.7 µM (inactive)
same,GI50,MDA-MB-435,33.7 µM (inactive)
same,GI50,OVCAR-5,61 µM (inactive)
same,GI50,Malme-3M,93.5 µM (inactive)
same,GI50,A549,59.7 µM (inactive)
same,GI50,MDA-N,30.6 µM (inactive)
same,GI50,NCI-H522,13 µM (inactive)
same,GI50,HCT-116,26.4 µM (inactive)
same,GI50,SK-MEL-28,94.2 µM (inactive)
same,GI50,OVCAR-3,45.4 µM (inactive)
same,GI50,BT-549,20.7 µM (inactive)
same,GI50,NCI/ADR-RES,27.2 µM (inactive)
same,GI50,MOLT-4,25.2 µM (inactive)
same,GI50,SNB-19,61 µM (inactive)
same,GI50,HL-60,21.2 µM (inactive)
same,GI50,RPMI-8226,33.7 µM (inactive)
same,GI50,SF-295,74.1 µM (inactive)
same,GI50,SK-OV-3,> 100 µM (inactive)
same,GI50,M14,39.3 µM (inactive)
same,GI50,UACC-62,32.4 µM (inactive)
same,GI50,SR,8.34 µM (inactive)
same,GI50,OVCAR-8,25.8 µM (inactive)
same,GI50,K562,32.7 µM (inactive)
same,GI50,HOP-92,32.2 µM (inactive)
same,GI50,PC-3,37.8 µM (inactive)
same,GI50,SK-MEL-5,28.2 µM (inactive)
same,GI50,MCF7,38.9 µM (inactive)
same,GI50,SK-MEL-2,40.9 µM (inactive)
same,GI50,U-251,52.6 µM (inactive)
same,GI50,SW-620,26.8 µM (inactive)
same,GI50,MDA-MB-231,82 µM (inactive)
same,GI50,CAKI-1,31.6 µM (inactive)
same,GI50,KM12,34.2 µM (inactive)
same,GI50,DU-145,20.9 µM (inactive)
same,GI50,EKVX,61.2 µM (inactive)
same,GI50,OVCAR-4,33.3 µM (inactive)
Cc1c(F)c(N)c2c(=O)cc(-c3ccc(NC(=O)[C@@H](N)CCCCN)c(F)c3)oc2c1F,GI50,SN12C,14.9 µM (inactive)
same,GI50,A498,0.057 µM (active)
same,GI50,786-0,7.48 µM (inactive)
same,GI50,SF-268,12.8 µM (inactive)
same,GI50,TK-10,0.239 µM (active)
same,GI50,CCRF-CEM,5.07 µM (inactive)
same,GI50,LOX IMVI,16.3 µM (inactive)
same,GI50,HT-29,14.3 µM (inactive)
same,GI50,UACC-257,0.209 µM (active)
same,GI50,HOP-62,12.3 µM (inactive)
same,GI50,ACHN,16.2 µM (inactive)
same,GI50,IGROV-1,0.0532 µM (active)
same,GI50,NCI-H460,0.132 µM (active)
same,GI50,UO-31,14.8 µM (inactive)
same,GI50,RXF 393,16.1 µM (inactive)
same,GI50,HCT-15,14 µM
same,GI50,MDA-MB-435,8.65 µM (inactive)
same,GI50,MDA-N,12.5 µM (inactive)
same,GI50,HCT-116,5.16 µM (inactive)
same,GI50,T47D,0.0942 µM (active)
same,GI50,SK-MEL-28,18.5 µM (inactive)
same,GI50,BT-549,23.6 µM (inactive)
same,GI50,NCI/ADR-RES,20.4 µM (inactive)
same,GI50,SNB-19,27 µM (inactive)
same,GI50,SF-295,13.2 µM (inactive)
same,GI50,SK-OV-3,15.3 µM (inactive)
same,GI50,M14,20.7 µM (inactive)
same,GI50,OVCAR-8,13.7 µM (inactive)
same,GI50,HOP-92,26.7 µM (inactive)
same,GI50,PC-3,16.6 µM (inactive)
same,GI50,MCF7,0.0399 µM (active)
same,GI50,SK-MEL-2,17.5 µM (inactive)
same,GI50,MDA-MB-231,16.3 µM (inactive)
same,GI50,KM12,8.95 µM (inactive)
same,GI50,DU-145,14.5 µM (inactive)
same,GI50,EKVX,11 µM (inactive)
C/C(=N\NC(=S)N1CC2CCC(CC2)C1)c1cccc(C)n1,GI50,SN12C,0.566 µM (active)
same,GI50,A498,3.11 µM (inactive)
same,GI50,786-0,1.08 µM (active)
same,GI50,SF-268,0.533 µM (active)
same,GI50,HCC 2998,2.16 µM (inactive)
same,GI50,TK-10,2.54 µM (inactive)
same,GI50,CCRF-CEM,0.01 µM (active)
same,GI50,LOX IMVI,0.78 µM (active)
same,GI50,HT-29,0.01 µM (active)
same,GI50,NCI-H226,0.841 µM (active)
same,GI50,COLO 205,0.01 µM (active)
same,GI50,UACC-257,0.142 µM (active)
same,GI50,HOP-62,1.06 µM (active)
same,GI50,ACHN,0.59 µM (active)
same,GI50,IGROV-1,0.815 µM (active)
same,GI50,NCI-H460,0.248 µM (active)
same,GI50,UO-31,0.505 µM (active)
same,GI50,RXF 393,3.72 µM (inactive)
same,GI50,HCT-15,0.537 µM
same,GI50,NCI-H23,2.49 µM (inactive)
same,GI50,Hs-578T,4.11 µM (inactive)
same,GI50,SF-539,0.378 µM (active)
same,GI50,MDA-MB-435,1.77 µM (inactive)
same,GI50,OVCAR-5,1.46 µM (inactive)
same,GI50,Malme-3M,2.11 µM (inactive)
same,GI50,SNB-75,2.64 µM (inactive)
same,GI50,A549,0.9 µM (active)
same,GI50,MDA-N,2.82 µM (inactive)
same,GI50,NCI-H522,0.00432 µM (active)
same,GI50,HCT-116,< 0.0445 µM (active)
same,GI50,T47D,0.01 µM (active)
same,GI50,SK-MEL-28,2.94 µM (inactive)
same,GI50,OVCAR-3,0.01 µM (active)
same,GI50,BT-549,1.32 µM (inactive)
same,GI50,NCI/ADR-RES,0.01 µM (active)
same,GI50,MOLT-4,0.01 µM (active)
same,GI50,SNB-19,1.75 µM (inactive)
same,GI50,HL-60,0.01 µM (active)
same,GI50,RPMI-8226,0.31 µM (active)
same,GI50,SF-295,0.445 µM (active)
same,GI50,SK-OV-3,0.809 µM (active)
same,GI50,M14,0.269 µM (active)
same,GI50,UACC-62,0.621 µM (active)
same,GI50,OVCAR-8,0.294 µM (active)
same,GI50,K562,< 0.0112 µM (active)
same,GI50,HOP-92,2.2 µM (inactive)
same,GI50,PC-3,0.01 µM (active)
same,GI50,SK-MEL-5,1.96 µM (inactive)
same,GI50,SK-MEL-2,4.7 µM (inactive)
same,GI50,U-251,0.551 µM (active)
same,GI50,SW-620,0.148 µM (active)
same,GI50,MDA-MB-231,0.224 µM (active)
same,GI50,CAKI-1,1.11 µM (active)
same,GI50,KM12,0.422 µM (active)
same,GI50,DU-145,0.617 µM (active)
same,GI50,EKVX,0.488 µM (active)
same,GI50,OVCAR-4,0.352 µM (active)
